The values below are quoted from earlier work in patent publication US11865201B2, “Product for dyeing keratinous material, containing aminosilicone, a chromophoric compound and ethoxylated fatty acid ester” (Henkel AG & Co. KGaA, priority 2019, dated 2024).

SMILES strings stand for the structures.

The conditions of this series: 25° C.

Regarding `CCN(Cc1cccc(S(=O)(=O)[O-])c1)c1ccc(C(=C2C=CC(=[N+](CC)Cc3cccc(S(=O)(=O)[O-])c3)C=C2)c2ccccc2S(=O)(=O)[O-])cc1.[Na+].[Na+]` [Acid Blue 9], the solubility in water result is “more than 20 wt. %”.

As for `O=S(=O)([O-])c1ccc(N=Nc2c(O)ccc3ccccc23)cc1.[Na+]` [Acid Orange 7, sodium salt of 4-[(2-hydroxy-1-naphthyl)azo]benzene sulphonate], the solubility in water entry is “more than 7 g/L”.

On to `Nc1cc(S(=O)(=O)[O-])cc2cc(S(=O)(=O)[O-])c(N=Nc3ccccc3)c(O)c12.[Na+].[Na+]` [Acid Red 33, diantrium salt of 5-amino-4-hydroxy-3-(phenylazo)-naphthalene-2,7-disulphonate], for which the solubility in water is 2500 µg/mL.

Regarding `O=C([O-])c1c(Cl)c(Cl)c(Cl)c(Cl)c1-c1c2c(Br)cc(=O)c(Br)c-2oc2c(Br)c(O)cc(Br)c12.O=C([O-])c1c(Cl)c(Cl)c(Cl)c(Cl)c1-c1c2c(Br)cc(=O)c(Br)c-2oc2c(Br)c(O)cc(Br)c12.[Na+].[Na+]` [Acid Red 92, disodium salt of 3,4,5,6-tetrachloro-2-(1,4,5,8-tetrabromo-6-hydroxy-3-oxoxanthen-9-yl)benzoic acid], the solubility in water entry is “greater than 10 g/L”.

For the molecule `O=C([O-])C1=NN(c2ccc(S(=O)(=O)[O-])cc2)C(=O)C1N=Nc1ccc(S(=O)(=O)[O-])cc1.[Na+].[Na+].[Na+]` (centres unmarked) [Acid Yellow 23, trisodium salt of 4,5-dihydro-5-oxo-1-(4-sulfophenyl)-4-((4-sulfophenyl)azo)-1H-pyrazole-3-carboxylic acid], the “solubility in water (in words)” value was “highly soluble in water”.
